Data from patent US4677131.

Experiment: shake-flask (equal volumes, stirred); both phases assayed by HPLC
Conditions: 32 °C

Row | SMILES | partition coefficient iso-octane / distilled water [concentration ratio]
1 | CCCCCCCN1CCN(C)C1=O | 24
2 | CCCCCCCCCCCCN1CCCCCC1=O | 2004
3 | CCCCCCCCCCCCN1CCN(C)C1=O | 7350
4 | CCCCCCCCCCN1CCN(C)C1=O | 756
